# Measurements taken from PubChem BioAssay (NCI).
# “And” between values parts separate entries of the source, which are not always exact repeats. Identical values can stand only once.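 All cell lines were grown in 96-well plates and treated with compound for 48 hours. The concentration for 50% growth inhibition is given as GI50. TGI marks complete inhibition of growth.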
# System: OVCAR-8 ovarian
# Test: inhibition of tumour cell growth, NCI panel, 48 h
SMILES,TGI [µM],GI50 [µM]
COC(=O)c1cc2c3ccccc3n(C(C)=O)c2cn1,> 100,
O=S(=O)([O-])c1ccc2c(c1)-c1nc-2nc2[n-]c(nc3nc(nc4[n-]c(n1)c1ccc(S(=O)(=O)[O-])cc41)-c1cc(S(=O)(=O)[O-])ccc1-3)c1ccc(S(=O)(=O)[O-])cc21.[Cu+2].[Na+],> 100,> 100
CCN1CCN(c2ccc(Nc3cc(N(C)C(=O)Nc4c(Cl)c(OC)cc(OC)c4Cl)ncn3)cc2)CC1,22.9,3.07
CC(C)c1ccc(Nc2ccc3c(OCCCN4CCN(C)CC4)cccc3n2)cc1,33.3,17.8
CCCCOC(=O)C1C(c2ccc(Cl)cc2)NC(c2ccc(Cl)cc2)C(C(=O)OCCCC)S1(=O)=O (configuration not stated),> 100,
Cc1cc(Br)cc(C)c1NC(=O)C(=O)C(C(=O)c1ccc2ccccc2c1)C1OC(=O)c2ccccc21 (configuration not stated),22.8,
COc1ccc2c(c1)C(C)Cc1c(Cl)ncnc1N2C (configuration not stated),25.2,0.463
CC(C)=C[C@@H]1C[C@H](C)[C@H]2CC[C@H](C)C3=C2[C@](O)(OC3=O)[C@]1(C)O,> 100,> 100
O=C1c2ccccc2C(=O)C1(Cl)C1(S(=O)(=O)O)c2ccccc2-c2ccccc21,> 100,

# System: CAKI-1 renal
# Test: inhibition of tumour cell growth, NCI panel, 48 h
SMILES,TGI,GI50
O=C(CCCn1ccnc1[N+](=O)[O-])NCCn1cncc1[N+](=O)[O-],> 100 µM,
Cn1cc(C2=C(c3ccc4ccccc4c3)C(=O)NC2=O)c2ccccc21,> 25 µM,> 16.7 µM
O=C(OCc1ccc2cccc(O)c2n1)N1CCN(C(=O)c2cc3cc(F)ccc3[nH]2)CC1,1.66 µM,0.354 µM
C[As](C)SC1OC(CO)C(O)C1O (configuration not stated),0.402 µM,0.0487 µM
Cn1c(=O)c2c(nc(Nc3cc(=O)[nH]c(=O)[nH]3)n2Cc2ccccc2)n(C)c1=O,> 100 µM,50.1 µM
COc1ccc2c(c1)CCC1C2CC[C@@]2(C)C1CC1=CC(COC(C)=O)C3C(=O)c4ccccc4C(=O)C3C12 (some centres not stated),> 100 µM,> 100 µM
C=C(F)C(=O)N1CCN(c2nc(OC[C@@H]3CCCN3C)nc3c2CCN(c2cccc4cccc(Cl)c24)C3)C[C@@H]1CC#N,2.44 µM,0.926 µM
O=C1CCCC/C(=C/c2ccccc2)N1,> 100 µM,
CC/C(=C(/c1ccc(OCCN(C)C)cc1)c1ccc(OC(=O)CCCCC(=O)c2c(C)[nH]c(/C=C3\N=C(c4ccc[nH]4)C=C3OC)c2C)cc1)c1ccccc1,36.1 µM,6.27 µM
CC[C@]12C=CCN3CC[C@@]4(c5ccc(OC)cc5N(C)[C@H]4[C@@](O)(C(=O)OC)[C@@H]1OC(=O)CCC[P+](c1ccccc1)(c1ccccc1)c1ccccc1)[C@@H]32,12.3 µM and 10.4 µM,4.67 µM and 2.8 µM
CC(=O)OC1Oc2ccccc2-c2oc(=O)c(-c3cc(=O)oc4cc(O)ccc34)cc21 (configuration not stated),83.7 µM,21.7 µM
CC(C)(C)C(=O)OCOP(=O)(OCOC(=O)C(C)(C)C)C1CCCN(O)C1=O (configuration not stated),> 100 µM,0.324 µM
CC(SC(C)C(=O)N/N=C/c1cccc(Cl)c1)C(=O)N/N=C\c1cccc(Cl)c1 (configuration not stated),> 100 µM,61.4 µM
CC(=O)O.CC(=O)O.CC(=O)O.CC(=O)O.CC(=O)O.CC(=O)O.O.[Ti].[Ti],> 100 µM,> 100 µM
COC(=O)C1=C(c2ccc3c(c2)OCO3)O[C@H](c2cc(OC)c(OC)c(OC)c2)[C@H]1COC(C)=O,66.8 µM,
Cc1ccc(Cl)cc1Nc1nc(C(F)(F)F)ccc1C(=O)N1CCN(c2ccc(F)cc2)CC1,14.2 µM,1.53 µM
CCCCc1c(OC)cc(O)c2c1C(=O)c1[nH]c(C(=O)O)c(O)c(=O)c1C2=O,> 100 µM,
O=C(Nc1ccc(OS(=O)(=O)c2ccccc2)cc1)C12CC3CC(CC(C3)C1)C2,> 100 µM,7.08 µM
COC(=O)c1cc2c3ccccc3n(C(C)=O)c2cn1,48.9 µM,
O=S(=O)([O-])c1ccc2c(c1)-c1nc-2nc2[n-]c(nc3nc(nc4[n-]c(n1)c1ccc(S(=O)(=O)[O-])cc41)-c1cc(S(=O)(=O)[O-])ccc1-3)c1ccc(S(=O)(=O)[O-])cc21.[Cu+2].[Na+],> 100 µM,> 100 µM
CCN1CCN(c2ccc(Nc3cc(N(C)C(=O)Nc4c(Cl)c(OC)cc(OC)c4Cl)ncn3)cc2)CC1,> 48.2 µM,4.19 µM
CC(C)c1ccc(Nc2ccc3c(OCCCN4CCN(C)CC4)cccc3n2)cc1,28.8 µM,12.6 µM
CCCCOC(=O)C1C(c2ccc(Cl)cc2)NC(c2ccc(Cl)cc2)C(C(=O)OCCCC)S1(=O)=O (configuration not stated),> 100 µM,
Cc1cc(Br)cc(C)c1NC(=O)C(=O)C(C(=O)c1ccc2ccccc2c1)C1OC(=O)c2ccccc21 (configuration not stated),51.1 µM,
COc1ccc2c(c1)C(C)Cc1c(Cl)ncnc1N2C (configuration not stated),> 100 µM,1.53 µM
